Measured values taken from patent US12187706B2, “NLRP3 modulators” (INNATE TUMOR IMMUNITY, INC., priority 2019, dated 2025).

Tests used:
human TLR7 = target: T1, human TLR7 (Homo sapiens, UniProt Q9NYK1); experiment: In vitro human TLR7 reporter assay (HEK-Blue, NF-kB/AP1-inducible SEAP); format: cell-based; settings: at 50 μM
T1 construct: host or cells: human HEK-Blue cells with NF-kB/AP1-inducible SEAP reporter
T1 sequence (Q9NYK1 27-1049): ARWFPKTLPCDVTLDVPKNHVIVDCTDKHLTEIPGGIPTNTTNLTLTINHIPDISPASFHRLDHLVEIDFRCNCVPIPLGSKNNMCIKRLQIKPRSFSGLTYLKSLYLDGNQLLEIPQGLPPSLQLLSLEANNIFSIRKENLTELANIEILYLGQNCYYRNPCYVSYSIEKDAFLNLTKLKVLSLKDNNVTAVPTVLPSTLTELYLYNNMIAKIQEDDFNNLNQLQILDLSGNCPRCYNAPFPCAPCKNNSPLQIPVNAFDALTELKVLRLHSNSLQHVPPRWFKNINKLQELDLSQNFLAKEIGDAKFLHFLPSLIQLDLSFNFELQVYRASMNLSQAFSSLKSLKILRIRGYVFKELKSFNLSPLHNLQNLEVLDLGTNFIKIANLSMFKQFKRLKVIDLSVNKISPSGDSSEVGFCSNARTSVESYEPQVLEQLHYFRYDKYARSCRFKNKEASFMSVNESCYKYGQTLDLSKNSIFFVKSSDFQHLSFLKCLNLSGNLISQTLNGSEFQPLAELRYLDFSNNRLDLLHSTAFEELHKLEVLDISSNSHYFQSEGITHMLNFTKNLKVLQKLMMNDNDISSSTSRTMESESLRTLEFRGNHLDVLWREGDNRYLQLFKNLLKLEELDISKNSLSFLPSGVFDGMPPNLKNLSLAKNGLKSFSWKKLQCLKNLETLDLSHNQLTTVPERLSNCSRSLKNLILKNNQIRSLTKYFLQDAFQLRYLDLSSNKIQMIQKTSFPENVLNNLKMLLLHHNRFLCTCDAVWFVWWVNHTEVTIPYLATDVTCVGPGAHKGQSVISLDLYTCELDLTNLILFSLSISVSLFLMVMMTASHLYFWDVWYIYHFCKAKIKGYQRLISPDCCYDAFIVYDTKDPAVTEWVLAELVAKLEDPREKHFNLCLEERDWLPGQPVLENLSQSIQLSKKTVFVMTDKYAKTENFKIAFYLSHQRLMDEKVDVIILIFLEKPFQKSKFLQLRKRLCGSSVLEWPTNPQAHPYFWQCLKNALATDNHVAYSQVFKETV
Protocol: (§1) In Vitro Human TLR7 and TLR8 Binding Reporter Assays Logarithmically-growing human HEK-Blue cells co-expressing a TLR7 or TLR8 gene and a NF-kB/AP1-inducible SEAP (secreted embryonic alkaline phosphatase; […] Cellular SEAP production is measured using an Envision plate reader instrument thirty minutes after adding freshly-made Quanti-Blue reagent (prepared by following manufacturer instructions; Invivogen, San Diego, CA) to the HEK-Blue TLR Nf-kB-SEAP cell reactions. All EC50 values (half-maximal effective concentration) are determined using proprietary data analysis software.

human TLR8 = target: T2, human TLR8 (Homo sapiens, UniProt Q9NR97); experiment: In vitro human TLR8 reporter assay (HEK-Blue, NF-kB/AP1-inducible SEAP); format: cell-based; settings: at 50 μM
T2 construct: host or cells: human HEK-Blue cells with NF-kB/AP1-inducible SEAP reporter
T2 sequence (Q9NR97 27-1041): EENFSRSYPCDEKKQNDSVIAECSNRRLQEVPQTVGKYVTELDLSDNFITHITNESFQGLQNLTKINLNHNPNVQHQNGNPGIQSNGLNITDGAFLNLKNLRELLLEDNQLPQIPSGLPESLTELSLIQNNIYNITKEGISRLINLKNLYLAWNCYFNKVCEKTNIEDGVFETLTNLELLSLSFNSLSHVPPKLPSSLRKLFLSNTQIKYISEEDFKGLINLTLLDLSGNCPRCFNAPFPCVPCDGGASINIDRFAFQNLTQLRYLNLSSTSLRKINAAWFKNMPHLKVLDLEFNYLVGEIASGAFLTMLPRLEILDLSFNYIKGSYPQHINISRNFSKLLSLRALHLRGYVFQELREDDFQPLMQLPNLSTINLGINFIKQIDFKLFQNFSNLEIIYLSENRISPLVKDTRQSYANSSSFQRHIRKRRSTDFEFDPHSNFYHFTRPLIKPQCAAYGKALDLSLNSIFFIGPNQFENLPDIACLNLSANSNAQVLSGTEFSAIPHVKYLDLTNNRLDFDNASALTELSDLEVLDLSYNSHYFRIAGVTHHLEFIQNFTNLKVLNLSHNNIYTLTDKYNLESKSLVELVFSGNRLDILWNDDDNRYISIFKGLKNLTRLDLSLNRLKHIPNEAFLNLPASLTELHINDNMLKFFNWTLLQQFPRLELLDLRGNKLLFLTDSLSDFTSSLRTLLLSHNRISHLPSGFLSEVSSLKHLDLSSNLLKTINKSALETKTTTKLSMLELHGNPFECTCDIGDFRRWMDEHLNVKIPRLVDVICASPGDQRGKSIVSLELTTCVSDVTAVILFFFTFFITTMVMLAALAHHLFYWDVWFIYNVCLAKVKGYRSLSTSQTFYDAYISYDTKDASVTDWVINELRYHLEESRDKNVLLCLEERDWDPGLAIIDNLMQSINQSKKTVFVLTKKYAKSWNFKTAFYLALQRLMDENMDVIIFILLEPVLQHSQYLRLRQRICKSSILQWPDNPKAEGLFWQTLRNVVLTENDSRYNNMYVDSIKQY
Protocol: as §1

What does the source list for `Nc1nc(OCCO)c2ccc(-c3ccn[nH]3)cc2n1` [Example 4, 2-((2-amino-7-(1H-pyrazol-3-yl)quinazolin-4-yl)oxy)ethan-1-ol]?
TLR7 agonist activity (human TLR7): < 50%; TLR8 agonist activity (human TLR8): < 50%
